Here are results for nine molecules from ChEMBL document CHEMBL1201862, “PubChem BioAssay data set” (2004).

Some test systems named below: SK-OV-3; SW-620; HCC 2998; OVCAR-5; HOP-92; MOLT-4; OVCAR-3; DU-145; RPMI-8226; SK-MEL-28; MDA-MB-231; SF-539; HCT-15; CCRF-CEM; T47D; M14; OVCAR-8; NCI-H226; NCI-H23; K562.
What all share (assay): inhibition of tumour cell growth, NCI panel, 48 h

Structures can show the parent of a compound that is named as a salt.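 Growth conditions: 96-well plates. Treatment: test compound, 48 hours, 5 concentrations. Analysis: linear interpolation between bracketing concentrations; unreached endpoints set to highest concentration. Abbreviation: GI50, concentration required for 50% inhibition of growth.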 Calls of active or inactive are those of the source. Rule as the data show it: active = GI50 up to about 1.1 µM and inactive = higher.

`COc1cc(OC)c(/C=N\Nc2nc3ccccc3c(=O)n2-c2ccccc2)c(OC)c1`: the GI50 in the assay on SK-OV-3 is 24.9 µM (inactive); in the assay on SW-620, 31 µM (inactive); in the assay with HCC 2998, 39.6 µM (inactive); in the assay with OVCAR-5 it was 43.9 µM (inactive); with HOP-92, 24.8 µM (inactive); in the assay on MOLT-4, 22.9 µM (inactive). For the same molecule, the GI50 with OVCAR-3 was 23.6 µM (inactive); in the assay with DU-145 it was 31.3 µM (inactive); with RPMI-8226 it was 26.4 µM (inactive); in the assay with SK-MEL-28 it was 27.4 µM (inactive); in the assay with MDA-MB-231, 23.8 µM (inactive); in the assay on SF-539, 18 µM (inactive). Moreover, the GI50 in the assay with HCT-15 was 37.4 µM; with CCRF-CEM, 14.2 µM (inactive); in the assay with T47D, 24.6 µM (inactive); with M14, 27.3 µM (inactive); with OVCAR-8 it was 28.7 µM (inactive); in the assay with NCI-H226 it was 19.4 µM (inactive). In addition, the values for the GI50 with NCI-H23 and in the assay on K562 were 58.5 µM (inactive) and 33 µM (inactive), respectively.

For the molecule `COc1ccc(/C=C(/c2ccccc2)c2c(C)cc(C)c(/C(=C\c3ccc(OC)cc3)c3ccccc3)c2/N=N/c2cc(C)cc(C)c2)cc1`, the GI50 was 41 µM (inactive) in the assay with SK-OV-3; 13.5 µM (inactive) with SW-620; 8.34 µM (inactive) in the assay with HCC 2998; > 84.5 µM (inactive) with OVCAR-5; 33.6 µM (inactive) in the assay on HOP-92; 15.7 µM (inactive) in the assay with MOLT-4. Further, the GI50 is 4.1 µM (inactive) in the assay with OVCAR-3; 25.6 µM (inactive) in the assay with DU-145; 6.07 µM (inactive) in the assay on RPMI-8226; > 100 µM (inactive) in the assay with SK-MEL-28; 6.76 µM (inactive) with MDA-MB-231; 42.1 µM (inactive) in the assay with SF-539. Besides, the GI50 was more than 66.1 µM in the assay with HCT-15; 8.49 µM (inactive) in the assay with CCRF-CEM; 4.9 µM (inactive) in the assay with T47D; 44.6 µM (inactive) with M14; 17.9 µM (inactive) in the assay on OVCAR-8; 34.2 µM (inactive) in the assay with NCI-H226. Besides, the figures for the GI50 in the assay on NCI-H23 and in the assay with K562 were 14.4 µM (inactive) and 11.7 µM (inactive), respectively.

As for `COc1ccc(/C=C2\CCC(CNc3cc(C)on3)C2=O)cc1` (stereo not given), the GI50 in the assay on SK-OV-3 is > 92.5 µM (inactive); with SW-620 it was > 100 µM (inactive); in the assay on HCC 2998, > 44.9 µM (inactive); with OVCAR-5, > 100 µM (inactive); in the assay on HOP-92, > 100 µM (inactive); with MOLT-4, > 100 µM (inactive). Also, the GI50 with OVCAR-3 is > 100 µM (inactive); in the assay with DU-145 it was > 83.6 µM (inactive); with RPMI-8226, > 100 µM (inactive); with SK-MEL-28, > 100 µM (inactive); in the assay with MDA-MB-231, > 82 µM (inactive); with SF-539 it was > 100 µM (inactive). For the same molecule, the GI50 in the assay on HCT-15 is more than 100 µM; with CCRF-CEM, > 100 µM (inactive); with T47D it was 33 µM (inactive); with M14 it was > 100 µM (inactive); in the assay on OVCAR-8 it was > 100 µM (inactive); in the assay on NCI-H226, > 100 µM (inactive). The GI50 with NCI-H23 was > 78.2 µM (inactive); in the assay on K562 it was > 100 µM (inactive).

In the case of `O=C(O)CCCN/C(=C1\C(=O)C(=O)N(c2ccccc2)C1=O)c1ccccc1`, the GI50 in the assay with SK-OV-3, in the assay with SW-620, with HCC 2998, with OVCAR-5, in the assay on HOP-92 and in the assay with MOLT-4 was > 100 µM (inactive) each time. Moreover, the GI50 was > 100 µM (inactive) in the assay with OVCAR-3; > 100 µM (inactive) with DU-145; > 100 µM (inactive) with RPMI-8226; > 100 µM (inactive) with SK-MEL-28; > 100 µM (inactive) in the assay with MDA-MB-231; 82 µM (inactive) in the assay on SF-539. Further, the GI50 with HCT-15 is more than 100 µM; in the assay on CCRF-CEM, > 100 µM (inactive); in the assay on T47D it was > 100 µM (inactive); with M14, > 100 µM (inactive); in the assay on OVCAR-8 it was > 100 µM (inactive); in the assay with NCI-H226, > 100 µM (inactive). Also, the GI50 in the assay on NCI-H23 and with K562 was > 100 µM (inactive) each time.

As for `CC(=O)N1N=C(c2ccc3ccccc3c2O)CC1C(=O)c1ccco1` (stereo not given), the GI50 in the assay on SK-OV-3 is 36.1 µM (inactive); in the assay on SW-620 it was 33.3 µM (inactive); in the assay on HCC 2998, 16.3 µM (inactive); with OVCAR-5, 28.6 µM (inactive); in the assay with HOP-92 it was 16.6 µM (inactive); in the assay on MOLT-4 it was 5.62 µM (inactive). Moreover, the GI50 is 20.3 µM (inactive) in the assay with OVCAR-3; 47.9 µM (inactive) in the assay on DU-145; 17.2 µM (inactive) in the assay with RPMI-8226; 37.8 µM (inactive) with SK-MEL-28; 80.5 µM (inactive) in the assay on MDA-MB-231; 26.1 µM (inactive) in the assay on SF-539. Moreover, the GI50 is 26.7 µM in the assay on HCT-15; 6.24 µM (inactive) in the assay with CCRF-CEM; 40.6 µM (inactive) with T47D; 19.3 µM (inactive) in the assay on M14; 25.5 µM (inactive) in the assay on OVCAR-8; 33.7 µM (inactive) in the assay on NCI-H226. Further, the GI50 was 27.9 µM (inactive) in the assay on NCI-H23 and 11.6 µM (inactive) in the assay with K562.

For `Cc1ccc(CNc2ccc(Br)cc2)cc1`, the GI50 was 53.8 µM (inactive) in the assay on SK-OV-3; 37.5 µM (inactive) with SW-620; 20.6 µM (inactive) with HCC 2998; > 100 µM (inactive) in the assay with OVCAR-5; 15 µM (inactive) with HOP-92; 44.8 µM (inactive) in the assay with MOLT-4. For the same molecule, the GI50 with OVCAR-3 was 34.8 µM (inactive); with DU-145, 90.4 µM (inactive); with RPMI-8226, 3.44 µM (inactive); with SK-MEL-28, 87.5 µM (inactive); with MDA-MB-231, 19.3 µM (inactive); in the assay with SF-539, 36.8 µM (inactive). Besides, the GI50 in the assay on HCT-15 is 10.4 µM; in the assay on CCRF-CEM it was 11.5 µM (inactive); in the assay with T47D, 29.5 µM (inactive); with M14, 59.6 µM (inactive); in the assay with OVCAR-8 it was 16.3 µM (inactive); with NCI-H226, 60 µM (inactive). Also, the GI50 with NCI-H23 was 50.2 µM (inactive); in the assay with K562, 22.9 µM (inactive).

In the case of `c1ccc(CN2C3C4N(Cc5ccccc5)C2C2N(Cc5ccccc5)C(C(N2Cc2ccccc2)N4Cc2ccccc2)N3Cc2ccccc2)cc1`, the GI50 with SK-OV-3, with SW-620, with HCC 2998, in the assay on OVCAR-5, with HOP-92 and in the assay on MOLT-4 was > 100 µM (inactive) in each case. The GI50 in the assay on OVCAR-3, in the assay with DU-145, in the assay on RPMI-8226, with SK-MEL-28, in the assay on MDA-MB-231 and with SF-539 was > 100 µM (inactive) in each case. The GI50 in the assay with HCT-15 is more than 100 µM; in the assay on CCRF-CEM, 40.1 µM (inactive); in the assay on T47D, > 100 µM (inactive); with M14 it was > 100 µM (inactive); in the assay with OVCAR-8, > 100 µM (inactive); with NCI-H226 it was > 100 µM (inactive). Moreover, the GI50 with NCI-H23 and with K562 was > 100 µM (inactive) each time.

With `O=c1[nH]nc(Cc2ccccc2)n1/N=C/c1ccccc1O`, the GI50 is > 100 µM (inactive) in the assay on SK-OV-3; > 100 µM (inactive) in the assay with SW-620; > 100 µM (inactive) in the assay on HCC 2998; > 100 µM (inactive) in the assay with OVCAR-5; 53.7 µM (inactive) in the assay with HOP-92; > 100 µM (inactive) in the assay with MOLT-4. Further, the GI50 with OVCAR-3 is > 100 µM (inactive); with DU-145 it was > 100 µM (inactive); in the assay on RPMI-8226, > 100 µM (inactive); with SK-MEL-28 it was > 100 µM (inactive); in the assay with MDA-MB-231 it was 63.2 µM (inactive); in the assay with SF-539, > 100 µM (inactive). For the same molecule, the GI50 was more than 100 µM in the assay on HCT-15; > 100 µM (inactive) in the assay with CCRF-CEM; > 100 µM (inactive) in the assay on T47D; > 100 µM (inactive) in the assay on M14; 40.1 µM (inactive) with OVCAR-8; > 100 µM (inactive) in the assay on NCI-H226. Moreover, the GI50 in the assay on NCI-H23 and with K562 was > 100 µM (inactive) throughout.

With `N[C@@H](Cc1ccc(N(CCCl)CCCl)cc1)C(=O)O` [MELPHALAN HYDROCHLORIDE], the GI50 in the assay with SK-OV-3 was 32 µM (inactive); in the assay with SW-620, 33.6 µM (inactive); with HCC 2998 it was 43.3 µM (inactive); in the assay with OVCAR-5, 47.4 µM (inactive); with HOP-92 it was 36.8 µM (inactive); with MOLT-4 it was 2.79 µM (inactive). Besides, the GI50 in the assay on OVCAR-3 is 42.3 µM (inactive); in the assay on DU-145, 47.2 µM (inactive); in the assay on RPMI-8226, 44 µM (inactive); in the assay with SK-MEL-28, 57.8 µM (inactive); in the assay on MDA-MB-231, 48.6 µM (inactive); in the assay with SF-539, 16.6 µM (inactive). Also, the GI50 in the assay with HCT-15 is 39.4 µM; in the assay with CCRF-CEM it was 2.85 µM (inactive); in the assay with T47D, 14.1 µM (inactive); in the assay on M14, 24.5 µM (inactive); in the assay with OVCAR-8, 35.2 µM (inactive); with NCI-H226 it was 49.9 µM (inactive). Also, the GI50 in the assay on NCI-H23 was 23 µM (inactive); in the assay on K562, 50.7 µM (inactive).
